Results published in patent US10995129B2 (Case Western Reserve University, priority 2011, dated 2021).

Legend:
[1] = target: A isoform of the insulin receptor (IR-A) (Homo sapiens, UniProt P06213); assay: Affinity of the GluA8, TrpA13, ChaB24 analogue for receptor isoform A; type: binding
[2] = target: B isoform of the insulin receptor (IR-B) (Homo sapiens, UniProt P06213); assay: Affinity of the GluA8, TrpA13, ChaB24 analogue for receptor isoform B; type: binding
[3] = system: Normal male Sprague-Dawley rats; assay: Hyperinsulinemic-euglycemic clamp; type: in vivo, rat
Description: A primed infusion of glucose was administered followed by a continuous dosage. […] Glucose appearance and disposal was determined by calculating the difference between glucose infused and glucose present in the plasma as determined by glucometer. Plasma levels of plasma nonesterified fatty acids (NEFA) are determined using a colorimeteric assay such as the assay kit available from Fujifilm Wako Diagnostics (Mountain View, Calif.). Phosphorylation relative to basal level was measured using Western blot analysis of samples harvested from liver, gastrocnemius and epididymal white adipose tissue (eWAT), and immunoblotted using anti-phosphotyrosine antibody (Cell Signaling Technologies, Inc., Danvers, Mass., Phospho-IGF-I Receptor β ([MUT]) Rabbit monoclonal antibody #3918). Similarly Akt phosphorylation was similarly tested using Cell Signaling Technology, Inc. (Danvers, Mass.) antibody No. 9271 as primary antibody and horse radish peroxidase (HRP)-linked Anti-rabbit IgG antibody No. 7074 (Cell Signaling Technology, Inc., Danvers, Mass.).

Substance: CHA: insulin analogue with Glu A8, Trp A13 and cyclohexanylalanine B24; SEQ ID NOS: 50 and 51
- lower affinity for the A isoform of the insulin receptor [1]: five
- lower affinity for the B isoform of the insulin receptor [2]: 13 fold
- increase of insulin stimulated whole body glucose disposal (Rd) ([3]; FIG. 16B): to a similar degree
- insulin stimulated whole body glucose disposal (Rd) ([3]; FIG. 16B legend): 21.1 ± 1.4 mg/kg/min
- insulin receptor tyrosine phosphorylation (IRKpY) in liver, vs KP ([3]; Western blot, FIG. 16D): decrease
- IRKpY activation in gastrocnemius muscle, vs KP ([3]; Western blot, FIG. 16E): to a similar degree
- IRKpY activation in epididymal white adipose tissue (eWAT), vs KP ([3]; Western blot, FIG. 16F): to a similar degree
- GINF (glucose infusion) ([3]; during clamp): 21.1 ± 1.4 mg/kg/min
- clamped plasma glucose concentration ([3]; during clamp, KP 24, CHA 40 pmol/kg-min): 111.1 ± 5.1 mg/dL
- suppression of endogenous glucose production (EGP) ([3]; hyperinsulinemic conditions, p=0.001): 28.2±16.7%
- 2-deoxyglucose uptake in eWAT ([3]; rat, in vivo): 0.72±0.1 mg glucose·kg tissue^−1·min^−1
- 2-deoxyglucose uptake in gastrocnemius ([3]; rat, in vivo): 18.6±2.5 mg glucose·kg tissue^−1·min^−1
